The values below come from ChEMBL document CHEMBL5543109, “Novel β-Hairpin Antimicrobial Peptide Containing the β-Turn Sequence of -NG- and the Tryptophan Zippers Facilitate Self-Assembly into Nanofibers, Exhibiting Excellent Antimicrobial Performance” (J Med Chem, 2024).

Values after ≈ are worked out from the molar mass of the structure shown. Residues, ends and D or L forms follow the SMILES beside them. A value given as a limit tells only on which side of the number the result lay.

Broadly, the MIC is the lowest concentration found to suppress growth. A higher MIC goes with a less susceptible organism.

Holding throughout (assay type): functional
Assay [1] deals with Staphylococcus aureus. Nature of the assay: Antibacterial activity against Staphylococcus aureus S794 incubated for 18 hrs by broth microdilution method. Background: In broth dilution the organism is exposed to a series of concentrations in liquid medium.
Assay [2] has as its system Escherichia coli. Description: Antibacterial activity against kanamycin resistant Escherichia coli incubated for 18 hrs by broth microdilution method.
Assay [3] deals with Staphylococcus aureus. Nature of the assay: Antibacterial activity against kanamycin resistant Staphylococcus aureus incubated for 18 hrs by broth microdilution method.
In assay [4] the test system is Staphylococcus aureus. Nature of the assay: Antibacterial activity against methicillin resistant Staphylococcus aureus 113 incubated for 18 hrs by broth microdilution method.
The subject of assay [5] is Staphylococcus aureus. Description: Antibacterial activity against Staphylococcus aureus incubated for 18 hrs by broth microdilution method.
The test system of assay [6] is Staphylococcus aureus. Nature of the assay: Antibacterial activity against rifampicin resistant Staphylococcus aureus incubated for 18 hrs by broth microdilution method.
Assay [7] relates to Escherichia coli. Nature of the assay: Antibacterial activity against Escherichia coli incubated for 18 hrs by broth microdilution method.
Assay [8] deals with Staphylococcus aureus. Nature of the assay: Antibacterial activity against Staphylococcus aureus S125 incubated for 18 hrs by broth microdilution method.
The test system of assay [9] is Staphylococcus aureus. Nature of the assay: Antibacterial activity against methicillin resistant Staphylococcus aureus 75 incubated for 18 hrs by broth microdilution method.
The subject of assay [10] is Staphylococcus aureus. Description: Antibacterial activity against methicillin resistant Staphylococcus aureus incubated for 18 hrs by broth microdilution method.
Assay [11] deals with Escherichia coli. Nature of the assay: Antibacterial activity against rifampicin resistant Escherichia coli incubated for 18 hrs by broth microdilution method.
For assay [12], the system named is Staphylococcus aureus. Description: Antibacterial activity against Staphylococcus aureus ATCC 25923 incubated for 18 hrs by broth microdilution method.
In another assay the test system is Pseudomonas aeruginosa. Description: Antibacterial activity against Pseudomonas aeruginosa ATCC 27853 incubated for 18 hrs by broth microdilution method.
Assay [13] deals with Escherichia coli. Nature of the assay: Antibacterial activity against Escherichia coli ATCC 25922 incubated for 18 hrs by broth microdilution method.
In assay [14] the test system is Staphylococcus epidermidis. Description: Antibacterial activity against Staphylococcus epidermidis ATCC 12228 incubated for 18 hrs by broth microdilution method.
For the next assay, the system named is Klebsiella pneumoniae. Nature of the assay: Antibacterial activity against Klebsiella pneumoniae ATCC 700603 incubated for 18 hrs by broth microdilution method.
A further assay relates to Bacillus subtilis. Description: Antibacterial activity against Bacillus subtilis ATCC 23857 incubated for 18 hrs by broth microdilution method.

As to `C[C@@H](O)[C@H]1C(=O)N2C(C(=O)O)=C(S[C@@H]3CN[C@H](C(=O)N(C)C)C3)[C@H](C)[C@H]12` [MEROPENEM], the MIC with Staphylococcus aureus [1], in the assay with Escherichia coli [2], against Staphylococcus aureus [3], against Staphylococcus aureus [4], with Staphylococcus aureus [5] and with Staphylococcus aureus [6] was 0.5 µM (≈ 0.192 µg/mL) each time. Also, the MIC against Escherichia coli [7] turned out to be 0.5 µM (≈ 0.192 µg/mL); with Staphylococcus aureus [8], 0.5 µM (≈ 0.192 µg/mL); against Staphylococcus aureus [9] it was 128 µM (≈ 49.1 µg/mL); in the assay with Staphylococcus aureus [10], 32 µM (≈ 12.3 µg/mL); in the assay on Escherichia coli [11], 0.5 µM (≈ 0.192 µg/mL).
For the molecule `CO[C@H]1/C=C/O[C@@]2(C)Oc3c(C)c(O)c4c(O)c(c(/C=N/N5CCN(C)CC5)c(O)c4c3C2=O)NC(=O)/C(C)=C\C=C\[C@H](C)[C@H](O)[C@@H](C)[C@@H](O)[C@@H](C)[C@H](OC(C)=O)[C@@H]1C` [RIFAMPIN], the MIC was 32 µM (≈ 26.3 µg/mL) in the assay on Staphylococcus aureus [1]; below 1 µM against Staphylococcus aureus [12]; 32 µM (≈ 26.3 µg/mL) with Escherichia coli [2]; 32 µM (≈ 26.3 µg/mL) against Pseudomonas aeruginosa; 4 µM (≈ 3.29 µg/mL) against Staphylococcus aureus [3]; 0.5 µM (≈ 0.411 µg/mL) against Staphylococcus aureus [4]. The MIC against Staphylococcus aureus [5] was 0.5 µM (≈ 0.411 µg/mL); against Staphylococcus aureus [6] it was 64 µM (≈ 52.7 µg/mL); with Escherichia coli [7], 16 µM (≈ 13.2 µg/mL); against Escherichia coli [13] it was 16 µM (≈ 13.2 µg/mL); in [14], below 1 µM; against Klebsiella pneumoniae, 64 µM (≈ 52.7 µg/mL). The MIC is 0.5 µM (≈ 0.411 µg/mL) in the assay with Staphylococcus aureus [8]; 256 µM (≈ 211 µg/mL) in the assay with Staphylococcus aureus [9]; 256 µM (≈ 211 µg/mL) against Staphylococcus aureus [10]; below 1 µM in the assay on Bacillus subtilis; 256 µM (≈ 211 µg/mL) in the assay on Escherichia coli [11].
`CO/N=C(\C(=O)N[C@@H]1C(=O)N2C(C(=O)O)=C(COC(C)=O)CS[C@H]12)c1csc(N)n1` [CEFOTAXIME]: the MIC against Staphylococcus aureus [1] turned out to be 256 µM (≈ 117 µg/mL); in the assay on Staphylococcus aureus [12], 2 µM (≈ 0.911 µg/mL); against Escherichia coli [2] it was 64 µM (≈ 29.2 µg/mL); against Pseudomonas aeruginosa it was 8 µM (≈ 3.64 µg/mL); against Staphylococcus aureus [3], 0.5 µM (≈ 0.228 µg/mL); against Staphylococcus aureus [4], 32 µM (≈ 14.6 µg/mL). Further, the MIC against Staphylococcus aureus [5] was 2 µM (≈ 0.911 µg/mL); against Staphylococcus aureus [6], 0.5 µM (≈ 0.228 µg/mL); with Escherichia coli [7] it was 0.5 µM (≈ 0.228 µg/mL); against Escherichia coli [13] it was below 1 µM; in assay [14], below 1 µM; with Klebsiella pneumoniae, 4 µM (≈ 1.82 µg/mL). For the same molecule, the MIC was 8 µM (≈ 3.64 µg/mL) with Staphylococcus aureus [8]; 256 µM (≈ 117 µg/mL) in the assay on Staphylococcus aureus [9]; 256 µM (≈ 117 µg/mL) in the assay with Staphylococcus aureus [10]; 64 µM (≈ 29.2 µg/mL) against Bacillus subtilis; 0.5 µM (≈ 0.228 µg/mL) against Escherichia coli [11].
For the molecule GENTAMICIN, the MIC with Staphylococcus aureus [1] turned out to be 32 µM; against Escherichia coli [2], 32 µM; with Staphylococcus aureus [3] it was 0.5 µM; with Staphylococcus aureus [4], 0.5 µM; with Staphylococcus aureus [5], 0.5 µM; in the assay with Staphylococcus aureus [6] it was 0.5 µM. Further, the MIC in the assay on Escherichia coli [7] turned out to be 0.5 µM; against Staphylococcus aureus [8] it was 8 µM; against Staphylococcus aureus [9], 32 µM; in the assay on Staphylococcus aureus [10], 16 µM; in the assay on Escherichia coli [11] it was 0.5 µM.
Take `C[C@@H](O)[C@H]1C(=O)N2C(C(=O)O)=C(SCCNC=N)C[C@H]12` [IMIPENEM ANHYDROUS]: the MIC against Staphylococcus aureus [1] was 0.5 µM (≈ 0.15 µg/mL); with Escherichia coli [2] it was 8 µM (≈ 2.39 µg/mL); in the assay with Staphylococcus aureus [3] it was 0.5 µM (≈ 0.15 µg/mL); with Staphylococcus aureus [4], 0.5 µM (≈ 0.15 µg/mL); against Staphylococcus aureus [5], 0.5 µM (≈ 0.15 µg/mL); in the assay with Staphylococcus aureus [6] it was 0.5 µM (≈ 0.15 µg/mL). Besides, the MIC was found to be 0.5 µM (≈ 0.15 µg/mL) in the assay on Escherichia coli [7]; 0.5 µM (≈ 0.15 µg/mL) in the assay on Staphylococcus aureus [8]; 256 µM (≈ 76.6 µg/mL) in the assay with Staphylococcus aureus [9]; 32 µM (≈ 9.58 µg/mL) against Staphylococcus aureus [10]; 0.5 µM (≈ 0.15 µg/mL) against Escherichia coli [11].
Regarding `NC[C@H]1O[C@H](O[C@H]2[C@H](O)[C@@H](O[C@H]3O[C@H](CO)[C@@H](O)[C@H](N)[C@H]3O)[C@H](N)C[C@@H]2N)[C@H](O)[C@@H](O)[C@@H]1O` [KANAMYCIN], the MIC is 16 µM (≈ 7.75 µg/mL) in the assay on Staphylococcus aureus [1]; below 1 µM in the assay with Staphylococcus aureus [12]; 256 µM (≈ 124 µg/mL) in the assay with Escherichia coli [2]; above 128 µM against Pseudomonas aeruginosa; 256 µM (≈ 124 µg/mL) in the assay with Staphylococcus aureus [3]; 256 µM (≈ 124 µg/mL) against Staphylococcus aureus [4]. The MIC against Staphylococcus aureus [5] is 0.5 µM (≈ 0.242 µg/mL); in the assay on Staphylococcus aureus [6] it was 4 µM (≈ 1.94 µg/mL); against Escherichia coli [7], 4 µM (≈ 1.94 µg/mL); in the assay on Escherichia coli [13] it was 8 µM (≈ 3.88 µg/mL); in assay [14], above 128 µM; against Klebsiella pneumoniae, 64 µM (≈ 31 µg/mL). In addition, the MIC was 256 µM (≈ 124 µg/mL) in the assay with Staphylococcus aureus [8]; 256 µM (≈ 124 µg/mL) against Staphylococcus aureus [9]; 256 µM (≈ 124 µg/mL) against Staphylococcus aureus [10]; below 1 µM in the assay with Bacillus subtilis; 4 µM (≈ 1.94 µg/mL) in the assay with Escherichia coli [11].
On to `CC[C@H](C)[C@H](N)C1=N[C@H](C(=O)N[C@@H](CC(C)C)C(=O)N[C@H](CCC(=O)O)C(=O)N[C@H](C(=O)N[C@H]2CCCCNC(=O)[C@H](CC(N)=O)NC(=O)[C@@H](CC(=O)O)NC(=O)[C@H](Cc3cnc[nH]3)NC(=O)[C@@H](Cc3ccccc3)NC(=O)[C@H]([C@@H](C)CC)NC(=O)[C@@H](CCCN)NC2=O)[C@@H](C)CC)CS1` [BACITRACIN] (HELM PEPTIDE1{[CC[C@H](C)[C@H](N)C1=N[C@H](C(=O)[*:2])CS1].L.[dE].I.K.[NCCC[C@@H](N[*:1])C(=O)[*:2]].I.[dF].H.[dD].N}$PEPTIDE1,PEPTIDE1,5:R3-11:R2$$$V2.0), for which the MIC against Staphylococcus aureus [1] was 256 µM (≈ 364 µg/mL); against Staphylococcus aureus [12] it was 32 µM (≈ 45.5 µg/mL); in the assay on Escherichia coli [2], 256 µM (≈ 364 µg/mL); against Pseudomonas aeruginosa, above 128 µM; against Staphylococcus aureus [3], 16 µM (≈ 22.8 µg/mL); against Staphylococcus aureus [4] it was 16 µM (≈ 22.8 µg/mL). The MIC is 32 µM (≈ 45.5 µg/mL) in the assay on Staphylococcus aureus [5]; 256 µM (≈ 364 µg/mL) against Staphylococcus aureus [6]; 256 µM (≈ 364 µg/mL) with Escherichia coli [7]; above 128 µM against Escherichia coli [13]; 16 µM (≈ 22.8 µg/mL) in assay [14]; above 128 µM against Klebsiella pneumoniae. Also, the MIC against Staphylococcus aureus [8] is 8 µM (≈ 11.4 µg/mL); in the assay on Staphylococcus aureus [9] it was 0.5 µM (≈ 0.711 µg/mL); against Staphylococcus aureus [10], 0.5 µM (≈ 0.711 µg/mL); against Bacillus subtilis, above 128 µM; against Escherichia coli [11] it was 256 µM (≈ 364 µg/mL).
`CN[C@@H]1[C@H](O[C@H]2[C@H](O[C@H]3[C@H](O)[C@@H](O)[C@H](N=C(N)N)[C@@H](O)[C@@H]3N=C(N)N)O[C@@H](C)[C@]2(O)C=O)O[C@@H](CO)[C@H](O)[C@H]1O` [STREPTOMYCIN]: the MIC against Staphylococcus aureus [1] was found to be 128 µM (≈ 74.4 µg/mL); in the assay with Escherichia coli [2], 64 µM (≈ 37.2 µg/mL); with Staphylococcus aureus [3], 4 µM (≈ 2.33 µg/mL); in the assay with Staphylococcus aureus [4], 64 µM (≈ 37.2 µg/mL); in the assay with Staphylococcus aureus [5], 0.5 µM (≈ 0.291 µg/mL); against Staphylococcus aureus [6], 2 µM (≈ 1.16 µg/mL). The MIC against Escherichia coli [7] was found to be 4 µM (≈ 2.33 µg/mL); against Staphylococcus aureus [8], 32 µM (≈ 18.6 µg/mL); against Staphylococcus aureus [9], 32 µM (≈ 18.6 µg/mL); against Staphylococcus aureus [10] it was 32 µM (≈ 18.6 µg/mL); in the assay with Escherichia coli [11] it was 2 µM (≈ 1.16 µg/mL).
